Assay results published in ChEMBL document CHEMBL3044559, “Synthesis and antidepressant-like action of N-(2-hydroxyethyl) cinnamamide derivatives in mice” (2011).

Tests used:
Mus musculus [1] = assay: Antidepressant like activity in Mus musculus Kunming (mouse) assessed as reduction of immobility time at 40 mg/kg, po measured during last 4 min of 6 min test by tail suspension test (reference value: 105.7 +/- 10.03 sec); assay type: functional
Mus musculus [2] = assay: Antidepressant like activity in Mus musculus Kunming (mouse) assessed as reduction of immobility time at 40 mg/kg, po measured during last 4 min of 6 min test by forced swimming test (reference value: 183.3 +/- 12.67 sec); assay type: functional

**Q.** With `O=C(/C=C/c1cccc(O)c1)NCCO` as the molecule, how does the Time (Mus musculus [1]) read?
**A.** The Time was 54 s.

**Q.** And the Time (Mus musculus [2])?
**A.** Its Time is 102.8 s.

**Q.** Which results are given for `O=C(/C=C/c1ccc(O)cc1)NCCO`?
**A.** Time (Mus musculus [1]): 71 s; Time (Mus musculus [2]): 133.3 s

**Q.** `COc1ccccc1/C=C/C(=O)NCCO` was tested. Which Time (Mus musculus [1]) did it give?
**A.** The Time was 38.67 s.

**Q.** What about the Time (Mus musculus [2]) of the same molecule?
**A.** Its Time is 159.1 s.

**Q.** `COc1cccc(/C=C/C(=O)NCCO)c1` was tested. Which Time (Mus musculus [1]) did it give?
**A.** Its Time is 43.33 s.

**Q.** What about the Time (Mus musculus [2]) of the same molecule?
**A.** Its Time is 141 s.

**Q.** `COc1ccc(/C=C/C(=O)NCCO)c(OC)c1` was tested. Which Time (Mus musculus [1]) did it give?
**A.** Its Time is 39.67 s.

**Q.** And the Time (Mus musculus [2])?
**A.** The Time was 143.5 s.

**Q.** With `COc1ccc(/C=C/C(=O)NCCO)cc1OC` as the molecule, how does the Time (Mus musculus [1]) read?
**A.** Its Time is 39.33 s.

**Q.** And the Time (Mus musculus [2])?
**A.** The Time was 157.8 s.

**Q.** For `COc1cc(/C=C/C(=O)NCCO)cc(OC)c1OC`, which Time (Mus musculus [1]) is on record?
**A.** The Time was 76.33 s.

**Q.** And the Time (Mus musculus [2])?
**A.** Its Time is 165.5 s.

**Q.** With `COc1cc(/C=C/C(=O)NCCO)ccc1O` as the molecule, how does the Time (Mus musculus [1]) read?
**A.** Its Time is 45 s.

**Q.** What about the Time (Mus musculus [2]) of the same molecule?
**A.** The Time was 55 s.

**Q.** How did the Time (Mus musculus [1]) turn out when `O=C(/C=C/c1ccccc1O)NCCO` was run?
**A.** Its Time is 44.83 s.

**Q.** And the Time (Mus musculus [2])?
**A.** The Time was 146.7 s.

**Q.** With `CN(C)c1ccc(/C=C/C(=O)NCCO)cc1` as the molecule, how does the Time (Mus musculus [1]) read?
**A.** Its Time is 64.67 s.

**Q.** What about the Time (Mus musculus [2]) of the same molecule?
**A.** Its Time is 105.5 s.

**Q.** How did the Time (Mus musculus [1]) turn out when `COc1ccc(/C=C/C(=O)NCCO)cc1` was run?
**A.** Its Time is 31.33 s.

**Q.** What about the Time (Mus musculus [2]) of the same molecule?
**A.** Its Time is 167.5 s.

**Q.** How did the Time (Mus musculus [1]) turn out when `O=C(/C=C/c1ccc(Cl)cc1)NCCO` was run?
**A.** The Time was 76.67 s.

**Q.** And the Time (Mus musculus [2])?
**A.** The Time was 168 s.

**Q.** How did the Time (Mus musculus [1]) turn out when `O=C(/C=C/c1ccc(F)cc1)NCCO` was run?
**A.** Its Time is 75 s.

**Q.** And the Time (Mus musculus [2])?
**A.** Its Time is 130.8 s.

**Q.** How did the Time (Mus musculus [1]) turn out when `O=C(/C=C/c1ccc(Br)cc1)NCCO` was run?
**A.** Its Time is 57 s.

**Q.** And the Time (Mus musculus [2])?
**A.** The Time was 119.7 s.

**Q.** For `CNCCC(Oc1ccc(C(F)(F)F)cc1)c1ccccc1` (stereo unspecified) [FLUOXETINE], which Time (Mus musculus [1]) is on record?
**A.** The Time was 14.17 s.

**Q.** How did the Time (Mus musculus [1]) turn out when `O=C(/C=C/c1ccccc1)NCCO` [IDROCILAMIDE] was run?
**A.** The Time was 25 s.

**Q.** What about the Time (Mus musculus [2]) of the same molecule?
**A.** Its Time is 101.2 s.
